From patent US11534448B2, “Use of canagliflozin in preparation of antitumor drug” (ZHEJIANG UNIVERSITY, priority 2019, dated 2022) come the findings set out here.

Holding throughout (type): cell-based, human
The subject of experiment [1] is PD-L1. Briefly: Western blotting of PD-L1 total protein expression in tumor cells. Particulars: canagliflozin 20 μM + IFNγ 10 ng/mL, 24 h, FIG. 1. The procedure:
Multiple human tumor cells, non-small cell lung cancer H1299 cells and osteosarcoma MG63 cells, were selected and respectively inoculated in 6-well plates (1.0×10^6 cells/well), and incubated overnight in incubator at 37° C. with 5% CO2. On the next day, each plate was added with canagliflozin (20 μM) and γ-interferon (IFNγ, 10 ng/mL), and after 24 hours, the cells were collected and lysed to extract the proteins. The expression of PD-L1 in the cells were detected by Western blotting.

The subject of experiment [2] is PD-L1. Description: Flow cytometry of PD-L1 expression on cell surfaces. Particulars: canagliflozin 20 μM + IFNγ 10 ng/mL, 24 h, FIG. 2. The procedure: Two human tumor cell lines, non-small cell lung cancer H1299 cells and osteosarcoma MG63 cells, were selected and respectively inoculated in 6-well plates (1.0×10^6 cells/well), and incubated overnight in incubator at 37° C. with 5% CO2. On the next day, each plate was added with canagliflozin (20 μM) and γ-interferon (IFNγ, 10 ng/mL), and after 24 hours, the PD-L1 expressions on the cell surfaces were detected with flow cytometry.

The test system of experiment [3] is PD-L1. Description: PD-L1 protein stability (cycloheximide chase, Western blotting, gray-scale analysis). Particulars: H1299 cells; IFNγ 10 ng/mL 24 h, then CHX (10 g/mL) + canagliflozin 20 μM vs CHX alone; 0-12 h; FIG. 3. The procedure: The non-small cell lung cancer H1299 cells were inoculated in 6-well plates (1.0×10^6 cells/well), and incubated overnight in incubator at 37° C. with 5% CO2. On the next day, the plates were first added with γ-interferon (IFNγ, 10 ng/mL), and after 24 hours, a protein synthesis inhibitor cycloheximide (CHX, […]) or a co-administration group of CHX ([…])+canagliflozin (20 μM) was administrated simultaneously for these plates. After 0 h, 2 h, 4 h, 6 h, 8 h, and 12 h, respectively, the cells were collected to detect the change of the protein level of PD-L1 in the cells by Western blotting, and a gray-scale analysis was performed to plot a curve for investigating the protein stability.

For experiment [4], the system named is non-small cell lung cancer H1299 cells. Description: Killing effect of activated T cells on co-incubated tumor cells (crystal violet staining). The following applies: H1299 cells treated with canagliflozin 20 μM + IFNγ 10 ng/mL for 24 h, PD-L1 antibody drug as positive control, FIG. 4. The protocol:
(§1) PBMC cells were isolated from human blood samples using Ficoll separation solution, and then stimulated with CD3 and CD28 for 3 days to activate T cells in PBMC, and in the meantime, interleukin-2 (IL-2, 50 U/uL) was administrated to maintain the growth of T cells. The activated T cells were co-incubated with the tumor cells that had been treated with canagliflozin (20 μM) and γ-interferon (IFNγ, 10 ng/mL) for 24 hours. A PD-L1 antibody drug was used as a positive control. The killing effect of T cells on tumor cells was investigated, and a crystal violet staining method was employed to investigate the killing effect of T cells on tumor cells.

The test system of another experiment is osteosarcoma MG63 cells. Described as above. The following applies: MG63 cells treated with canagliflozin 20 μM + IFNγ 10 ng/mL for 24 h, PD-L1 antibody drug as positive control, FIG. 4. The protocol:
as §1

The mark [5] stands for this setting: non-small cell lung cancer H1299 cells.

For the molecule `Cc1ccc([C@@H]2O[C@H](CO)[C@@H](O)[C@H](O)[C@H]2O)cc1Cc1ccc(-c2ccc(F)cc2)s1` [canagliflozin, (1S)-1,5-anhydro-1-C-[3-[[5-(4-fluorophenyl)-2-thienyl]methyl]-4-methylphenyl]-D-glucitol], the “PD-L1 total protein expression” value in the experiment with PD-L1 [1] (setting [5]) and in the experiment on PD-L1 [1] (osteosarcoma MG63 cells) was “significantly inhibited the PD-L1 total protein expression” each time. For the same molecule, the “PD-L1 protein expression on the cell surface” value with PD-L1 [2] (setting [5]) and in the experiment on PD-L1 [2] (osteosarcoma MG63 cells) was “significantly inhibited the PD-L1 protein expression on the tumor cell surfaces” each time. In addition, in the experiment with PD-L1 [3], the “degradation of the PD-L1 protein” value is given as “significantly promoted the degradation of the PD-L1 protein”. The “killing effect of T cells on tumor cells” value (in experiment [4]; with osteosarcoma MG63 cells) was “significantly enhanced the killing effect of T cells on tumor cells” in each case.
